Laboratory results published in article PMC12668308, “A Novel Antimalarial Agent that Inhibits Protein Synthesis in Plasmodium falciparum” (Angewandte Chemie (International Ed. in English), 2025).
Several values for one entry are separate records, joined by “and”; a condition that tells them apart may be missing. Equal values may be shown once.

Experiments:
Dd2b2^pfmdr1 G182S = format: cell-based, Plasmodium falciparum; conditions: Dd2b2^pfmdr1 G182S vs Dd2b2^WT
Procedure: (§1) ^[a] 72-h [^3H] hypoxanthhine incorporation assay; Data is expressed as mean±s.d. The assay was performed in three independent biological experiments, each in biological duplicates
P. falciparum asexual blood stage parasites were cultured in human red blood cells (RBC, Blutspende SRK, Zurich) at a hematocrit of 5% in RPMI 1640 medium. The RPMI 1640 medium (ThermoFisher Scientific #51800−043) was supplemented with the following: 24 mM NaHCO3 (pH 7.3, Sigma-Aldrich #31437−500G-R), 25 mM Hepes (Sigma-Aldrich #H4034−500G), 0.36 mM hypoxanthine (Sigma-Aldrich # H9377−25G), 100 µg mL^-1 neomycin (Sigma-Aldrich #N6386−100G) and 0.5% Albumax II (Thermo Fisher #11021−045). Additionally, 2 mM choline chloride (279 mg/L, Sigma-Aldrich #C7527−100G) was added to the culture to block the induction of sexual commitment as described. ^[31^] The RPMI 1640 medium and components were dissolved in water (Milli-Q purified), stirred for at least 3 h, and then sterile filtered (0.22 μm pore size) with a bottle top filter (Corning # 431118). Parasite cultures were maintained in an atmosphere of 3% O2, 4% CO2, and 93% N2 in air-tight chambers at 37 °C. The [^3H]-hypoxanthine incorporation assay was used to test compound activity in the specific parasite lines as described.^[32^] Briefly, compounds were dissolved in DMSO (10 mM) and diluted in a hypoxanthine-free culture medium. A limiting dilution was performed over a 64-fold range (6-step twofold dilution) in a 96-well plate in duplicates. For every starting concentration, a limiting dilution was performed over a 64-fold range (6-step twofold dilution) in a 96-well plate in two biological duplicates. Parasites were added at 100 µL to each well containing the compound to obtain a final parasitemia of 0.3% and haematocrit of 1.25%. The plates were incubated for 48 h before 0.25 µCi of [^3H]-hypoxanthine was added per well for an additional 24 h. Parasites were harvested on a glass-fiber filter with a Microbeta FilterMate cell harvester (Perkin Elmer, Waltham, USA) and radioactivity was counted using a MicroBeta2 liquid scintillation counter (Perkin Elmer, Waltham, US). […] The fifty percent inhibitory concentration (IC50) was calculated by using nonlinear, four parameter (variable slope) curve fitting as described ^[33^] after importing into GraphPad Prism (version 8.3.0).

Dd2b2^pfmdr1 K1065N = format: cell-based, Plasmodium falciparum; conditions: Dd2b2^pfmdr1 K1065N vs Dd2b2^WT
Procedure: as §1
(§2) P. falciparum asexual blood stage parasites were cultured in human red blood cells (RBC, Blutspende SRK, Zurich) at a hematocrit of 5% in RPMI 1640 medium. The RPMI 1640 medium (ThermoFisher Scientific #51800−043) was supplemented with the following: 24 mM NaHCO3 (pH 7.3, Sigma-Aldrich #31437−500G-R), 25 mM Hepes (Sigma-Aldrich #H4034−500G), 0.36 mM hypoxanthine (Sigma-Aldrich # H9377−25G), 100 µg mL^-1 neomycin (Sigma-Aldrich #N6386−100G) and 0.5% Albumax II (Thermo Fisher #11021−045). Additionally, 2 mM choline chloride (279 mg/L, Sigma-Aldrich #C7527−100G) was added to the culture to block the induction of sexual commitment as described. ^[31^] The RPMI 1640 medium and components were dissolved in water (Milli-Q purified), stirred for at least 3 h, and then sterile filtered (0.22 μm pore size) with a bottle top filter (Corning # 431118). Parasite cultures were maintained in an atmosphere of 3% O2, 4% CO2, and 93% N2 in air-tight chambers at 37 °C. The [^3H]-hypoxanthine incorporation assay was used to test compound activity in the specific parasite lines as described.^[32^] Briefly, compounds were dissolved in DMSO (10 mM) and diluted in a hypoxanthine-free culture medium. A limiting dilution was performed over a 64-fold range (6-step twofold dilution) in a 96-well plate in duplicates. For every starting concentration, a limiting dilution was performed over a 64-fold range (6-step twofold dilution) in a 96-well plate in two biological duplicates. Parasites were added at 100 µL to each well containing the compound to obtain a final parasitemia of 0.3% and haematocrit of 1.25%. The plates were incubated for 48 h before 0.25 µCi of [^3H]-hypoxanthine was added per well for an additional 24 h. Parasites were harvested on a glass-fiber filter with a Microbeta FilterMate cell harvester (Perkin Elmer, Waltham, USA) and radioactivity was counted using a MicroBeta2 liquid scintillation counter (Perkin Elmer, Waltham, US). The results were recorded, processed by subtraction of the mean background signal obtained from the uninfected RBC controls and expressed as percentage of untreated controls. The fifty percent inhibitory concentration (IC50) was calculated by using nonlinear, four parameter (variable slope) curve fitting as described ^[33^] after importing into GraphPad Prism (version 8.3.0).

[1] = system: laboratory-selected Dd2 strains; test: [3H]-hypoxanthine incorporation assay; format: cell-based; conditions: Plasmodium falciparum, DD2, read-out: IC50 against the laboratory-selected Dd2 strains
Procedure: To determine potential cross resistance against compound 31 in parasites harboring mutations that confer resistance to current antimalarials, its activity was assessed against drug‐resistant field isolates as previously described. […] A cross‐resistance was considered when there was more than a 10‐fold shift in the IC50 relative to the NF54 strain. […] Because of this, 31 was tested against laboratory‐selected Dd2 strains, which contained additional resistance variants to preclinical and clinical drug candidates.
P. falciparum asexual blood stage parasites were cultured in human red blood cells (RBC, Blutspende SRK, Zurich) at a hematocrit of 5% in RPMI 1640 medium. […] Parasites were harvested on a glass-fiber filter with a Microbeta FilterMate cell harvester (Perkin Elmer, Waltham, USA) and radioactivity was counted using a MicroBeta2 liquid scintillation counter (Perkin Elmer, Waltham, US). The results were recorded, processed by subtraction of the mean background signal obtained from the uninfected RBC controls and expressed as percentage of untreated controls. The fifty percent inhibitory concentration (IC50) was calculated by using nonlinear, four parameter (variable slope) curve fitting as described ^[33^] after importing into GraphPad Prism (version 8.3.0).

3D7^Cas9 pfmdr1 G182S = format: cell-based, Plasmodium falciparum; conditions: 3D7^Cas9 pfmdr1 G182S vs 3D7^WT
Procedure: ^[a] 72-h [^3H] hypoxanthhine incorporation assay; Data is expressed as mean±s.d.. The assay was performed in three independent biological experiments, each in biological duplicates.
as §2
The P. falciparum 3D7 wild type parasites in the ring stage were transfected as described.^[20] Infected RBCs collected from a 5 ml culture of synchronous ring stage parasites (5-6% parasitemia at ) were added to 250 µl of packed RBCs and were co-transfected with 50µg of Cas9 and 50 µg of donor plasmids using a Bio-Rad Gene Pulser Xcell Electroporation System (single exponential pulse, 310 V, 250 µF). 24 hours post-transfection, 5 nM WR99210 (MedChemExpress #HY-116387) was added to the culture medium for six days to select for gene-edited parasites, and henceforth parasites were maintained in normal culture medium until a stably propagating parasite population was obtained. After ~4 weeks post-transfection, stably propagating parasite population were obtained. The transgenic parasite line (3D7^pfmdr1 G182S) was cloned out using an established plaque assays via limiting dilution.^[35^] […]

Q: For `CN1CCN(Cc2ccc(O)c(NC(=O)c3cccc(Oc4cc(C(F)(F)F)ccn4)c3)c2)CC1` [Compound 31, N-(2-hydroxy-5-((4-methylpiperazin-1-yl)methyl)phenyl)-3-((4-(trifluoromethyl)pyridin-2-yl)oxy)benzamide], which “IC50 fold shift relative to parental clone” value (Dd2b2^pfmdr1 G182S) is on record?
A: 35.7

Q: What about the “IC50 fold shift relative to parental clone” value (Dd2b2^pfmdr1 K1065N) of the same compound?
A: 20.2

Q: What about the IC50 [1] of the same compound?
A: 2.4 to 6.6 nM

Q: What about the “IC50 fold shift relative to 3D7^WT strain” value (3D7^Cas9 pfmdr1 G182S) of the same compound?
A: 7 and 6.6
